Reference: patent US7312237B2, “Combination of epothilone analogs and chemotherapeutic agents for the treatment of prolilferative diseases” (Bristol-Myers Squibb Co., priority 2001, dated 2007)
Values joined by “and” are separate entries in the source; they are usually repeats but may differ in a detail not shown here. Equal entries are not always repeated. “Also recorded” adds a separate entry of the source.

Assays:
[1] = In vivo antitumor testing, A2780 in nude mice; settings: nude, mouse, in vivo, iv, Compound 1 IV, read-out: OD (optimal dose or MTD)
Protocol: (§1) All tumor implants for efficacy testing were subcutaneous (sc).
(§2) The MTD was frequently equivalent to OD. When death occurs, the day of death was recorded.
(§3) And, Log cell kill=T−C÷(3.32×TVDT)

[2] = system: A2780 human ovarian carcinoma; assay: In vivo antitumor testing, A2780 in nude mice
Protocol: as §1, §2, §3

HCT-116 = assay: In vitro cytotoxicity (MTS assay), HCT-116; type: cell-based; settings: Homo sapiens; HCT-116, 72 hour incubation
Protocol: HCT116 human carcinoma cell lines and HCT116/VM46 cells, a MDR variant, were maintained in McCoy's 5A medium (GIBCO) and 10% heat inactivated fetal bovine serum (GIBCO). A2780 human ovarian carcinoma cells and A2780Tax cells obtained from Dr. Antonio Fojo (NCI, Bethesda, Md.) were maintained in IMEM (GIBCO) and 10% fetal bovine serum (GIBCO).
The in vitro cytotoxicity was assessed in tumor cells by a tetrazolium-based colorimetric assay which takes advantage of the metabolic conversion of MTS (3-(4,5-dimethylthiazol-2-yl)-5-(3-carboxymethoxyphenyl)-2-(4-sulphenyl)-2H-tetrazolium, inner salt) to a reduced form that absorbs light at 492 nm. Cells were seeded 24 hr prior to drug addition. Following a 72 hour incubation at 37° C. with serially diluted compound, MTS, in combination with the electron coupling agent phenazine methosulfate, was added to the cells. The incubation was continued for 3 hours, then the absorbancy of the medium at 492 nm was measured with a spectrophotometer to obtain the number of surviving cells relative to control populations. The results are expressed as median cytotoxic concentrations (IC50 values).

[3] = system: A2780 human ovarian carcinoma; assay: In vivo antitumor testing, A2780 in nude rats
Protocol: as §2, §3
A2780 grown in nude rats was also utilized.

[4] = In vivo antitumor testing, Pat-7 in nude rats; settings: nude, rat, in vivo, iv; read-out: OD (optimal dose or MTD)
Protocol: as §2, §3

[5] = system: Pat-7 human ovarian carcinoma; assay: In vivo antitumor testing, Pat-7 in nude rats; settings: Expt. 15, nude rats, IV q8dx2, OD 3 mg/kg
Protocol: as §2, §3

[6] = In vivo antitumor testing, HCT116 xenograft; set-up: species or system nude mice; settings: nude, mouse, in vivo, read-out: OD (optimal dose or MTD)
Protocol: as §1, §2, §3

[7] = system: HCT116 human colon carcinoma; assay: In vivo antitumor testing, HCT116 xenograft; set-up: species or system nude mice
Protocol: as §1, §2, §3

HCT116/VM46 = assay: In vitro cytotoxicity (MTS assay), HCT116/VM46; type: cell-based, human
[8] = system: HCT116 human colon carcinoma cell line; assay: Clonogenic cell colony-formation assay (single agent and combination, isobologram); type: cell-based; settings: concentration killing clonogenic HCT-116 cells by 90%
Description: Analysis of the effects of combination treatment in vitro was by the isobologram and multiplicity methods described by Stephens and Steel
The success of an anticancer agent is dependent not only on its antitumor activity as a single agent but also on its ability to combine successfully with other antineoplastic drugs.

HCT116 cells = assay: Mitotic blockade (cell cycle progression); type: cell-based, human; settings: 7.5 nM, 8 hours
[9] = human, in vivo
[10] = In vivo antitumor testing, M5076 murine sarcoma; set-up: species or system mice; settings: (C57Bl/6×DBA/2)F1 hybrid, mouse, in vivo, iv, Compound 1 IV, read-out: OD (optimal dose or MTD)
Protocol: (§4) The murine fibrosarcoma M5076 was also employed.
(§5) The human tumors were maintained in Balb/c nu/nu nude mice. M5076 was maintained in C57BL/6 mice. Tumors were propagated as subcutaneous transplants in the appropriate mouse strain using tumor fragments obtained from donor mice.
as §1, §2, §3

[11] = system: M5076 murine fibrosarcoma; assay: In vivo antitumor testing, M5076 murine sarcoma; set-up: species or system mice
Protocol: as §4, §5, §1, §2, §3

[12] = Expt. 89, IV q2dx5, OD 6.3 mg/kg
[13] = Expt. 115, IV q2dx5, OD 6.3 mg/kg
[14] = Expt. 115, IV q4dx3, OD 16 mg/kg
[15] = Expt. 52, IV q2dx5, OD 6.3 mg/kg
[16] = Expt. 52, IV q4dx3, OD 10 mg/kg
[17] = Expt. 52, IV q8dx2, OD 24 mg/kg
[18] = Expt. 52, PO q2dx5, OD 90 mg/kg

C/C(=C\c1csc(C)n1)[C@@H]1C[C@@H]2O[C@]2(C)CCC[C@H](C)[C@H](O)[C@@H](C)C(=O)C(C)(C)[C@@H](O)CC(=O)N1 (relative stereo) [Compound 1, [1S-[1R*,3R*(E),7R*,10S*,11R*,12R*,16S*]]-7,11-dihydroxy-8,8,10,12,16-pentamethyl-3-[1-methyl-2-(2-methyl-4-thiazolyl)ethenyl]-4-aza-17-oxabicyclo[14.1.0] heptadecane-5,9-dione]
MTD ([1]; q2dx5): 6.3 mg/kg
MTD ([1]; q4dx3): 16 mg/kg
OD (optimal dose or MTD) ([2]; Compound 1 IV, q2dx5): 4.8 mg/kg
LCK (gross log cell kill) [2, 12]: > 4.8
cures/total [2, 12]: 3/7
LCK (gross log cell kill) ([2]; Expt. 92, IV q2dx5, OD 6.3 mg/kg): 2
LCK (gross log cell kill) ([2]; Expt. 111, IV q2dx5, OD 4.8 mg/kg): 3.1
LCK (gross log cell kill) [2, 13]: 2.4
cures/total [2, 13]: 0/8
LCK (gross log cell kill) [2, 14]: >5.3
cures/total [2, 14]: 3/7
IC50 (HCT-116): 2.6 nM
MTD ([3]; Compound 1, every 2 days x5, nude rats): 1.2 mg/kg/inj
LCK ([3]; nude rats, every 2 days x5, MTD 1.2 mg/kg/inj): 0.3
MTD [4]: 3 mg/kg
LCK (gross log cell kill) [5]: >5
cures/total [5]: 4 of 6 and (4/6)
MTD ([6]; iv, Compound 1 IV, q2dx5): 6.3 mg/kg
MTD ([6]; iv, Compound 1 IV, q4dx3): 10 mg/kg
MTD ([6]; iv, Compound 1 IV, q8dx2): 24 mg/kg
MTD ([6]; po, Compound 1 PO, q2dx5): 90 mg/kg
LCK (gross log cell kill) [7, 15]: > 6.3
cures/total [7, 15]: 4 of 8 and 4/8
LCK (gross log cell kill) [7, 16]: > 6.3
cures/total [7, 16]: 5 of 8 and 5/8
LCK (gross log cell kill) [7, 17]: > 6.3
cures/total [7, 17]: 8 of 8 and 8/8
LCK (gross log cell kill) [7, 18]: >6.3
cures/total [7, 18]: seven of eight; also recorded: (7/8)
IC50 (HCT116/VM46; Homo sapiens, HCT-116/VM46, HCT116/VM46 (MDR), 72 hour incubation): 24.5 nM
resistance ratio (R/S) (HCT116/VM46; IC50 HCT116/VM46 versus sensitive HCT116): 9.4
IC90 [8]: ~7.5 nM
block of cells in mitosis (HCT116 cells): almost completely blocks cells in mitosis
dose recommended for Phase II clinical trials [9]: 50 mg/m2
MTD ([10]; q2dx5): 8.4 mg/kg
MTD ([10]; q4dx3): 24 mg/kg
LCK (gross log cell kill) ([11]; Expt. 159, IV q2dx5, OD 8.4 mg/kg): 0.5
LCK (gross log cell kill) ([11]; Expt. 162, IV q2dx5, OD 8.4 mg/kg): 0.7
LCK (gross log cell kill) ([11]; Expt. 172, IV q4dx3, OD 24 mg/kg): 1.0
